# In patent US12703850B2, “Photostabilized compositions and a method for stabilizing photosensitive components” (Evonik Operations GmbH, priority 2022, dated 2026):
# Where a SMILES comes first, the peptide text is derived from it.
# How the values were obtained:
# Type in all cases: physicochemical
# [1] = Brown color index of solutions with 0.013 mM riboflavin exposed to day light, Example 2; conditions: for Brown colorization after exposure (in words): 2 mM, any type of aqueous solution used; for Brown color index in cell culture media (MEM) Day 7 / Brown color index in cell culture media (MEM) Day 0 / Brown color index in PBS Day 7 / Brown color index in PBS Day 0: with 0.013 mM riboflavin; for Brown color index in cell culture media (MEM) Day 7 / Brown color index in PBS Day 7: 7 days day light; for Color after exposure (in words): amino acid up to 32 mM, 7 days
# Experimental: Aqueous solutions of 2.5 mM L-Tryptophan (Trp) and 0.013 mM riboflavin were prepared in phosphate-buffered saline (D-PBS) as well as in Minimal Essential Medium (MEM). These solutions were used to dissolve the dipeptides L-alanyl-L-tyrosine dihydrate (Ala-Tyr) and glycyl-L-tyrosine dihydrate (Gly-Tyr) as well as the amino acids L-tyrosine (Tyr), L-alanine (Ala), and glycine (Gly) at several concentrations to create solvent mixtures. In example 1, the dipeptides were tested at concentrations of 0.5 mM, 2.5 mM and 10 mM and Tyr at a concentration of 0.5 mM. PBS and MEM as well as 2.5 mM Trp dissolved in PBS and MEM were used as controls. In example 2, the dipeptides and Tyr were tested at a concentration of 2 mM, Ala and Gly at 32 mM, and the solvent (PBS or MEM) was used as control (“solvent background”).
# (§1) The samples were exposed to electromagnetic radiation (day light) at room temperature for seven (example 2) as well as 14 days (example 1). A relative quantification of the brown color of the samples of example 1 was obtained by measuring the absorbance at 330 nm. The intensity of the brown color of samples of example 2 was determined by eye using a brown color index.
# Aqueous solutions of PBS or MEM containing 0.013 mM riboflavin show a week fluorescent yellow-green color. Exposure to electromagnetic radiation at room temperature for seven days results in a brown colorization of the MEM solution, while the yellow-green color in PBS solutions vanished.
# [2] = Brown colorization of tryptophan solutions exposed to day light (absorbance at 330 nm), Example 1; conditions: room temperature; for Effect on brown colorization of Trp solution / Effect on brown colorization compared with Tyr: day light; for Effect on brown colorization of Trp solution: 14 days; for Effect on brown colorization compared with Tyr: 0.5 mM Tyr-dipeptide versus 0.5 mM Tyr
# Experimental: Aqueous solutions of 2.5 mM L-Tryptophan (Trp) and 0.013 mM riboflavin were prepared in phosphate-buffered saline (D-PBS) as well as in Minimal Essential Medium (MEM). These solutions were used to dissolve the dipeptides L-alanyl-L-tyrosine dihydrate (Ala-Tyr) and glycyl-L-tyrosine dihydrate (Gly-Tyr) as well as the amino acids L-tyrosine (Tyr), L-alanine (Ala), and glycine (Gly) at several concentrations to create solvent mixtures. […] PBS and MEM as well as 2.5 mM Trp dissolved in PBS and MEM were used as controls.
# The intensity of the brown color was measured as absorbance difference at 330 nm.
# [3] = Brown color index of solutions without riboflavin exposed to day light, Example 2; conditions: for Brown color index in cell culture media (MEM) Day 7 / Brown color index in cell culture media (MEM) Day 0 / Brown color index in PBS Day 7 / Brown color index in PBS Day 0: without 0.013 mM riboflavin; for Brown color index in cell culture media (MEM) Day 7 / Brown color index in PBS Day 7: 7 days day light; for Brown color index in cell culture media (MEM) Day 7 / Brown color index in PBS Day 7 / Color after exposure (in words): room temperature; for Color after exposure (in words): amino acid up to 32 mM, 7 days electromagnetic radiation
# Experimental: […] These solutions were used to dissolve the dipeptides L-alanyl-L-tyrosine dihydrate (Ala-Tyr) and glycyl-L-tyrosine dihydrate (Gly-Tyr) as well as the amino acids L-tyrosine (Tyr), L-alanine (Ala), and glycine (Gly) at several concentrations to create solvent mixtures. In example 1, the dipeptides were tested at concentrations of 0.5 mM, 2.5 mM and 10 mM and Tyr at a concentration of 0.5 mM. PBS and MEM as well as 2.5 mM Trp dissolved in PBS and MEM were used as controls. In example 2, the dipeptides and Tyr were tested at a concentration of 2 mM, Ala and Gly at 32 mM, and the solvent (PBS or MEM) was used as control (“solvent background”).
# as §1
# Other control solutions of PBS and MEM without riboflavin were colorless at day 0.
# [4] = addition of 0.5 mM to 2.5 mM Trp in PBS or MEM, absorbance at 330 nm
# [5] = 7 days electromagnetic radiation, room temperature
# [6] = dipeptide concentrations of up to 10 mM, 2.5 mM Trp in PBS or MEM
SMILES,"Effect on brown colorization of Trp solution [2, 4]","Brown colorization after exposure (in words) [1, 5]","Brown color index in cell culture media (MEM) Day 7 ([1]; sample 2 mM, room temperature)",Brown color index in cell culture media (MEM) Day 0 ([1]; sample 2 mM),"Brown color index in PBS Day 7 ([1]; sample 2 mM, room temperature)",Brown color index in PBS Day 0 ([1]; sample 2 mM),Brown color index in cell culture media (MEM) Day 7 ([3]; sample 32 mM),Brown color index in cell culture media (MEM) Day 0 ([3]; sample 32 mM),Brown color index in PBS Day 7 ([3]; sample 32 mM),Brown color index in PBS Day 0 ([3]; sample 32 mM),also measured
"Cc1cc2nc3c(=O)[nH]c(=O)nc-3n(C[C@H](O)[C@H](O)[C@H](O)CO)c2cc1C [riboflavin, (−)-Riboflavin]",,,,,,,,,,,"Intensity of brown color (brown color index, in words) ([1]; 0.013 mM riboflavin alone in MEM, 7 days electromagnetic radiation, room temperature): normal brown color; Yellow-green color after exposure ([1]; 0.013 mM riboflavin alone in PBS, 7 days electromagnetic radiation, room temperature): vanished"
"N[C@@H](Cc1ccc(O)cc1)C(=O)O [Tyr, L-tyrosine]",reduce this colorization,strong brown,5 (strong brown color),0 (no brown color),5 (strong brown color),0 (no brown color),,,,,Brown color index in cell culture media (MEM) Day 7 ([3]; sample 2 mM): 2 (moderate brown color); Brown color index in cell culture media (MEM) Day 0 ([3]; sample 2 mM): 0 (no brown color); Brown color index in PBS Day 7 ([3]; sample 2 mM): 0 (no brown color); Brown color index in PBS Day 0 ([3]; sample 2 mM): 0 (no brown color)
"N[C@@H](Cc1c[nH]c2ccccc12)C(=O)O [Trp, L-Tryptophan]",,,,,,,,,,,Color change on exposure to electromagnetic radiation ([2]; 2.5 mM Trp alone in PBS or MEM): strong color change towards brown color
"NCC(=O)N[C@@H](Cc1ccc(O)cc1)C(=O)O.O.O [Gly-Tyr, glycyl-L-tyrosine dihydrate] (H-Gly-Tyr-OH)",reduce this colorization,normal brown color,3,0 (no brown color),3,0 (no brown color),1 (week brown color),0 (no brown color),0 (no brown color),0 (no brown color),"Effect on brown colorization compared with Tyr ([2]; 2.5 mM Trp in PBS or MEM): the effect is greater; Effect on brown colorization of Trp solution [2, 6]: further reduction or even completely prevented the change in color"
"C[C@H](N)C(=O)O [Ala, L-alanine]",,,,,,,1 (week brown color),0 (no brown color),0 (no brown color),0 (no brown color),"Color after exposure (in words) ([1]; MEM with 0.013 mM riboflavin): normal brown; Color after exposure (in words) ([1]; PBS with 0.013 mM riboflavin): stayed colorless; Brown color index in cell culture media (MEM) Day 7 ([1]; sample 32 mM, room temperature): 3; Brown color index in cell culture media (MEM) Day 0 ([1]; sample 32 mM): 0 (no brown color); Brown color index in PBS Day 7 ([1]; sample 32 mM, room temperature): 0 (no brown color); Brown color index in PBS Day 0 ([1]; sample 32 mM): 0 (no brown color); Color after exposure (in words) ([3]; MEM without riboflavin): week brown; Color after exposure (in words) ([3]; PBS without riboflavin): stayed colorless"
"C[C@H](N)C(=O)N[C@@H](Cc1ccc(O)cc1)C(=O)O.O.O [Ala-Tyr, L-alanyl-L-tyrosine dihydrate] (H-Ala-Tyr-OH)",reduce this colorization,normal brown color,3,0 (no brown color),3,0 (no brown color),1 (week brown color),0 (no brown color),0 (no brown color),0 (no brown color),"Effect on brown colorization compared with Tyr ([2]; 2.5 mM Trp in PBS or MEM): the effect is greater; Effect on brown colorization of Trp solution [2, 6]: further reduction or even completely prevented the change in color"
"NCC(=O)O [Gly, glycine]",,,,,,,1 (week brown color),0 (no brown color),0 (no brown color),0 (no brown color),"Color after exposure (in words) ([1]; MEM with 0.013 mM riboflavin): normal brown; Color after exposure (in words) ([1]; PBS with 0.013 mM riboflavin): stayed colorless; Brown color index in cell culture media (MEM) Day 7 ([1]; sample 32 mM, room temperature): 3; Brown color index in cell culture media (MEM) Day 0 ([1]; sample 32 mM): 0 (no brown color); Brown color index in PBS Day 7 ([1]; sample 32 mM, room temperature): 0 (no brown color); Brown color index in PBS Day 0 ([1]; sample 32 mM): 0 (no brown color); Color after exposure (in words) ([3]; MEM without riboflavin): week brown; Color after exposure (in words) ([3]; PBS without riboflavin): stayed colorless"
